“Also recorded” adds a separate entry of the source.
System: TNF-α
Assay: Anti-inflammatory activity of isolated microglia (TNF-α in supernatant by ELISA after LPS and IFNγ)
Format: cell-based, mouse
Conditions: 12 h pretreatment with 0, 25, 50 or 100 μM synthetic peptide; then LPS 5 ng/ml and IFNγ 0.5 ng/ml for 12 h; FIG. 11
Experimental: Brain tissue homogenate is obtained by treating the brain extirpated from a mouse with papain. After stopping the enzymatic reaction, microglia were allowed to interact with a pan-microglia marker, CD11b antibody (produced from Miltenyi Biotec) magnetically-labeled with microbeads and isolated by the MACS method.
Isolated microglia are cultured for 12 hours in a medium supplemented with various peptides. 5 ng/ml lipopolysaccharide (LPS, SIGMA-ALDRICH) and 0.5 ng/ml interferon γ(IFNγ, R & D systems) were then added and culture was continued for 12 hours. TNF-α contained in the culture supernatant was quantified with an ELISA kit (eBiosceince).
Peptides were synthesized based on the obtained amino acid sequences and the anti-inflammatory effect was evaluated. The isolated microglia are pretreated in a medium supplemented with 0, 25, 50, or 100 μM of a synthetic peptide ([…] (SEQ ID NO: 1), […] (SEQ ID NO: 17), AVPYP (SEQ ID NO: 6), SLPQ (SEQ ID NO: 9), YPE (SEQ ID NO: 12), WM (SEQ ID NO: 14), or WY (SEQ In NO: 13)) for 12 hours. As described above, LPS and IFN-γ were added to the medium and culture was continued for 12 hours. INF-α contained in the culture supernatant was measured by ELISA. The result is illustrated in FIG. 11. In FIG. 11, “CM1” indicates the result of […] (SEQ ID NO: 1), “CM2” indicates the result of […] […]

Q: How did the “production of TNF-α (anti-inflammatory effect)” value turn out when tryptophan-tyrosine [WY] was run?
A: Its value is “particularly high anti-inflammatory effect”.

System: scopolamine model of poor memory
Assay: Y-maze test (spontaneous alternation behavior) in mice given scopolamine
Format: in vivo
Conditions: 1 μmol/kg to mice; FIG. 9A, 9B
Experimental: FIG. 1A illustrates a summary of methods of evaluating the memory and learning function and the cognitive function. To 6-week-old male CD-1 mice, 1 mg/kg of the peptide extract or 0.1-3 μmol/kg of a synthetic peptide is orally administered forcibly into stomach and 40 minutes later 0.80 mg/kg of scopolamine hydrochloride was administered intraperitoneally to cause memory impairment. 20 minutes after the intraperitoneal administration of scopolamine, the Y-maze test was conducted to evaluate the spontaneous alternation behavior.
Mice originally have a habit of selecting a route different from the route selected immediately before. Therefore a mouse placed in a Y-maze having 3 arms equivalent in width, length, and the like normally enters the arm different from the arm that the mouse entered immediately before. The Y-maze test is a test to evaluate the short-term memory using the habit of mice.
In the Y-maze test, a Y-maze was used as an experimental apparatus having 3 arms each connected at an angle of 120 degrees and each having a length of 25 cm, a wall high of 20 cm, and a floor width of 5 cm.
Mice were placed in the tip of one of the aims in the Y-maze and the orders of the arms that the mice entered when the mice were allowed to search freely for 8 minutes were recorded. The spontaneous alternation behavior is defined as the behavior in which a mouse selects and enters the different arm three times consecutively. […] 10 mice per group were used for the experiment and the average and the standard error were determined. [Examination of Enzymatic Agent]

Q: For PVEP (listed as Bos taurus), which “enhancing effect on the memory and learning function” value is on record?
A: Its value is “had the enhancing effect on the memory and learning function at the similar level to that of the original amino acid sequence KEMPFPKYPVEP”.

Same assay, conditions: synthetic peptide 0.1-3 μmol/kg orally; scopolamine 0.80 mg/kg i.p.

Q: Which “enhancing effect on the memory and learning function and the cognitive function (spontaneous alternation behavior rate)” value does the source give for `N[C@@H](Cc1c[nH]c2ccccc12)C(=O)O` [W, tryptophan, reference compound] here?
A: The value was “had no effects”.

Q: “AVPYP (listed as Bos taurus) [casein-derived peptide, tested as synthetic peptide]” was tested. Which “enhancing effect on the memory and learning function and the cognitive function (spontaneous alternation behavior rate)” value did it give?
A: The value was “enhancement activity on the memory and learning function and the cognitive function”.

Q: “GTWY (listed as Bos taurus) [whey-derived peptide, tested as synthetic peptide]” was tested. Which “enhancing effect on the memory and learning function and the cognitive function (spontaneous alternation behavior rate)” value did it give?
A: The value was “exhibited the activity of enhancing the memory and learning function and the cognitive function in a concentration-dependent manner”.

Q: “GYGGVSLP (listed as Bos taurus) [whey-derived peptide, tested as synthetic peptide]” was tested. Which “enhancing effect on the memory and learning function and the cognitive function (spontaneous alternation behavior rate)” value did it give?
A: The value was “exhibited the activity of enhancing the memory and learning function and the cognitive function in a concentration-dependent manner”.

Q: “KEMPFPKYPVEP (listed as Bos taurus) [casein-derived peptide of 12 amino acids, tested as synthetic peptide]” was tested. Which “enhancing effect on the memory and learning function and the cognitive function (spontaneous alternation behavior rate)” value did it give?
A: The value was “enhancement activity on the memory and learning function and the cognitive function”.

Q: How did the “enhancing effect on the memory and learning function and the cognitive function (spontaneous alternation behavior rate)” value turn out when “KPTPEGDLEI (listed as Bos taurus) [whey-derived peptide, tested as synthetic peptide]” was run?
A: The value was “exhibited the activity of enhancing the memory and learning function and the cognitive function in a concentration-dependent manner”.

Q: “SLPQ (listed as Bos taurus) [casein-derived peptide, tested as synthetic peptide]” was tested. Which “enhancing effect on the memory and learning function and the cognitive function (spontaneous alternation behavior rate)” value did it give?
A: Its value is “enhancement activity on the memory and learning function and the cognitive function”.

Q: “TWY (listed as Bos taurus) [whey-derived peptide, tested as synthetic peptide]” was tested. Which “enhancing effect on the memory and learning function and the cognitive function (spontaneous alternation behavior rate)” value did it give?
A: The value was “exhibited the activity of enhancing the memory and learning function and the cognitive function in a concentration-dependent manner”.

Q: “TWYS (listed as Bos taurus) [whey-derived peptide, tested as synthetic peptide]” was tested. Which “enhancing effect on the memory and learning function and the cognitive function (spontaneous alternation behavior rate)” value did it give?
A: Its value is “exhibited the activity of enhancing the memory and learning function and the cognitive function in a concentration-dependent manner”.

Q: “VAGTWYS (listed as Bos taurus) [whey-derived peptide, tested as synthetic peptide]” was tested. Which “enhancing effect on the memory and learning function and the cognitive function (spontaneous alternation behavior rate)” value did it give?
A: The value was “exhibited the activity of enhancing the memory and learning function and the cognitive function in a concentration-dependent manner”.

Q: Which “enhancing effect on the memory and learning function and the cognitive function (spontaneous alternation behavior rate)” value does the source give for “VSLPEW (listed as Bos taurus) [whey-derived peptide, tested as synthetic peptide]” here?
A: The value was “exhibited the activity of enhancing the memory and learning function and the cognitive function in a concentration-dependent manner”.

Q: “YPE (listed as Bos taurus) [casein-derived peptide, tested as synthetic peptide]” was tested. Which “enhancing effect on the memory and learning function and the cognitive function (spontaneous alternation behavior rate)” value did it give?
A: The value was “enhancement activity on the memory and learning function and the cognitive function”.

Q: “methionine-tryptophan [MW, reference compound]” was tested. Which “enhancing effect on the memory and learning function and the cognitive function (spontaneous alternation behavior rate)” value did it give?
A: The value was “had no enhancing effect on the memory and learning function and the cognitive function”.

Q: How did the “enhancing effect on the memory and learning function and the cognitive function (spontaneous alternation behavior rate)” value turn out when tryptophan-methionine [WM] was run?
A: Its value is “found to have an enhancing effect on the memory and learning function and the cognition function in a concentration-dependent manner; also recorded: enhancement activity on the memory and learning function and the cognitive function”.

Q: How did the “enhancing effect on the memory and learning function and the cognitive function (spontaneous alternation behavior rate)” value turn out when tryptophan-tyrosine [WY] was run?
A: The value was “found to have an enhancing effect on the memory and learning function and the cognition function in a concentration-dependent manner; also recorded: enhancement activity on the memory and learning function and the cognitive function”.

Q: “tyrosine-tryptophan [YW, reference compound]” was tested. Which “enhancing effect on the memory and learning function and the cognitive function (spontaneous alternation behavior rate)” value did it give?
A: The value was “had no enhancing effect on the memory and learning function and the cognitive function”.

Reference: patent US10052359B2, “Composition for enhancing memory and learning function and/or cognitive function” (KIRIN KABUSHIKI KAISHA, priority 2014, dated 2018)
